Results: the NIST ThermoML archive (doi:10.1021/acs.jced.8b00125)
Numbers after ± are expanded uncertainties.

Conditions: Liquid, Closed cell (Static) method

| Structure (SMILES) | vapor or sublimation pressure (303.15 K) | vapor or sublimation pressure (313.15 K) | vapor or sublimation pressure (323.15 K) | vapor or sublimation pressure (333.15 K) | vapor or sublimation pressure (343.15 K) | vapor or sublimation pressure (353.15 K) | vapor or sublimation pressure (363.15 K) | vapor or sublimation pressure (373.15 K) | vapor or sublimation pressure (383.15 K) | vapor or sublimation pressure (393.15 K) |
| --- | --- | --- | --- | --- | --- | --- | --- | --- | --- | --- |
| CC1CCCCC1 [methylcyclohexane] | 7.9 ± 1 kPa | 12.3 ± 1 kPa | 18.5 ± 1 kPa | 27.1 ± 1 kPa | 38.7 ± 1 kPa | 53.8 ± 1.1 kPa | 73.3 ± 1.1 kPa |  |  |  |
| C1CCCCC1 [cyclohexane] | 16.4 ± 1 kPa | 24.7 ± 1 kPa | 36.4 ± 1 kPa | 52 ± 1.1 kPa | 72.5 ± 1.1 kPa |  |  |  |  |  |
| CCCCCCC [heptane] | 7.9 ± 1 kPa | 12.4 ± 1 kPa | 19 ± 1 kPa | 28.2 ± 1 kPa | 40.6 ± 1 kPa | 57.1 ± 1.1 kPa |  |  |  |  |
| CCCCCCCCCCCC [dodecane] |  |  |  |  | 0.4 kPa | 0.7 ± 1 kPa | 1.2 ± 1 kPa | 2 ± 1 kPa | 3.2 ± 1 kPa | 4.9 ± 1 kPa |
| CCC1CCCCC1 [ethylcyclohexane] | 2.1 ± 1 kPa | 3.7 ± 1 kPa | 6 ± 1 kPa | 9.3 ± 1 kPa | 13.9 ± 1 kPa | 20.4 ± 1 kPa | 28.9 ± 1 kPa | 40.3 ± 1 kPa | 54.8 ± 1.1 kPa | 73.2 ± 1.1 kPa |
| CCCCCCCCCC [decane] | 0.2 kPa | 0.6 ± 1 kPa | 1 ± 1 kPa | 1.7 ± 1 kPa | 2.7 ± 1 kPa | 4.3 ± 1 kPa | 6.6 ± 1 kPa | 9.9 ± 1 kPa | 14.4 ± 1 kPa | 20.6 ± 1 kPa |
